Results as given in patent US20070232607A1, “Quinazoline Derivatives as Erbb Receptor Tyrosine kinases” (priority 2004, published 2007).

Assays:
EGFR tyrosine kinase = target: T1, EGFR tyrosine kinase (Homo sapiens, UniProt P00533); assay: Protein tyrosine kinase phosphorylation assay, Test (a), EGFR; type: biochemical; conditions: recombinant intracellular fragment, ATP at Km concentration; read-out: IC50 (μM) Test (a): Inhibition of EGFR tyrosine kinase protein phosphorylation
T1 construct: Recombinant intracellular fragments of EGFR, erbB2 and erbB4; made in house; host or cells: baculovirus/Sf21 insect cells (cleared lysate used)
T1 sequence (P00533 669-1210 limits assumed): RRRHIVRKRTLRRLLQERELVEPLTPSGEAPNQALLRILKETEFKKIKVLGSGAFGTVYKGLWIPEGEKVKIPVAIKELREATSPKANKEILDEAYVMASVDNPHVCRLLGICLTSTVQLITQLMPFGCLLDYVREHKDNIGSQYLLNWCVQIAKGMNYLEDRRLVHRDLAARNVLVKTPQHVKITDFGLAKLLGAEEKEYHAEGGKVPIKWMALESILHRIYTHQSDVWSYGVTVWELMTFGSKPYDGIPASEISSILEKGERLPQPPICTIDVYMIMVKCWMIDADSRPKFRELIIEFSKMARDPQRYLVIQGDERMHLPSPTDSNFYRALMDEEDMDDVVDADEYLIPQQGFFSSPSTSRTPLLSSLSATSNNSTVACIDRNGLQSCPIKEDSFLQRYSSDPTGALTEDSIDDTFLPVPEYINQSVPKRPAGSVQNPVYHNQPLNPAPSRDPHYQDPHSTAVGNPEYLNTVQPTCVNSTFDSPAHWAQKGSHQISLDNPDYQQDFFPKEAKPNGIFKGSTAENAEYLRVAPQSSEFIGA
Description: (§1) This test measures the ability of a test compound to inhibit the phosphorylation of a tyrosine containing polypeptide substrate by an erb receptor tyrosine kinase enzyme.
(§2) Recombinant intracellular fragments of EGFR, erbB2 and erbB4 (accession numbers X00588, X03363 and L07868 respectively) were cloned and expressed in the baculovirus/Sf21 system. Lysates were prepared from these cells by treatment with ice-cold lysis buffer (20 mM N-2-hydroxyethylpiperizine-N′-2-ethanesulfonic acid (HEPES) pH7.5, 150 mM NaCl, 10% glycerol, 1% Triton X-100, 1.5 mM MgCl2, 1 mM ethylene glycol-bis(β-aminoethyl ether) N′,N′,N′,N′-tetraacetic acid (EGTA), plus protease inhibitors and then cleared by centrifugation.
(§3) Constitutive kinase activity of these recombinant proteins was determined by their ability to phosphorylate a synthetic peptide (made up of a random co-polymer of Glutamic Acid, Alanine and Tyrosine in the ratio of 6:3:1). Specifically, Maxisorb™ 96-well immunoplates were coated with synthetic peptide (0.2 μg of peptide in a 100 μl phosphate buffered saline (PBS) solution and incubated at 4° C. overnight). Plates were washed in 50 mM HEPES pH 7.4 at room temperature to remove any excess unbound synthetic peptide. EGFR or erbB2 activities were assessed by incubation in peptide coated plates for 20 minutes at room temperature in 50 mM HEPES pH 7.4 at room temperature, adenosine trisphosphate (ATP) at Km concentration for the respective enzyme, 10 mM MnCl2, 0.05 mM Na3VO4, 0.1 mM DL-dithiothreitol (DTT), 0.05% Triton X-100 with test compound in DMSO (final concentration of 2.5%). Reactions were terminated by the removal of the liquid components of the assay followed by washing of the plates with PBS-T (phosphate buffered saline with 0.05% Tween 20).
(§4) The immobilised phospho-peptide product of the reaction was detected by immunological methods. Firstly, plates were incubated for 90 minutes at room temperature with anti-phosphotyrosine primary antibodies that were raised in the mouse (4G10 from Upstate Biotechnology). Following extensive washing, plates were treated with Horseradish Peroxidase (HRP) conjugated sheep anti-mouse secondary antibody (NXA931 from Amersham) for 60 minutes at room temperature. After further washing, HRP activity in each well of the plate was measured colorimetrically using 22′-Azino-di-[3-ethylbenzthiazoline sulfonate (6)] diammonium salt crystals (ABTS™ from Roche) as a substrate.
(§5) Quantification of colour development and thus enzyme activity was achieved by the measurement of absorbance at 405 nm on a Molecular Devices ThermoMax microplate reader. Kinase inhibition for a given compound was expressed as an IC50 value. […] The range of phosphorylation was calculated from the positive (vehicle plus ATP) and negative (vehicle minus ATP) control values.

erbB2 tyrosine kinase = target: T2, erbB2 tyrosine kinase (Homo sapiens, UniProt P04626); assay: Protein tyrosine kinase phosphorylation assay, Test (a), erbB2; type: biochemical; conditions: recombinant intracellular fragment, ATP at Km concentration; read-out: IC50 (μM) Test (a): Inhibition of erbB2 tyrosine kinase protein phosphorylation
T2 construct: Recombinant intracellular fragments of EGFR, erbB2 and erbB4; made in house; host or cells: baculovirus/Sf21 insect cells (cleared lysate used)
T2 sequence (P04626 676-1255 limits assumed): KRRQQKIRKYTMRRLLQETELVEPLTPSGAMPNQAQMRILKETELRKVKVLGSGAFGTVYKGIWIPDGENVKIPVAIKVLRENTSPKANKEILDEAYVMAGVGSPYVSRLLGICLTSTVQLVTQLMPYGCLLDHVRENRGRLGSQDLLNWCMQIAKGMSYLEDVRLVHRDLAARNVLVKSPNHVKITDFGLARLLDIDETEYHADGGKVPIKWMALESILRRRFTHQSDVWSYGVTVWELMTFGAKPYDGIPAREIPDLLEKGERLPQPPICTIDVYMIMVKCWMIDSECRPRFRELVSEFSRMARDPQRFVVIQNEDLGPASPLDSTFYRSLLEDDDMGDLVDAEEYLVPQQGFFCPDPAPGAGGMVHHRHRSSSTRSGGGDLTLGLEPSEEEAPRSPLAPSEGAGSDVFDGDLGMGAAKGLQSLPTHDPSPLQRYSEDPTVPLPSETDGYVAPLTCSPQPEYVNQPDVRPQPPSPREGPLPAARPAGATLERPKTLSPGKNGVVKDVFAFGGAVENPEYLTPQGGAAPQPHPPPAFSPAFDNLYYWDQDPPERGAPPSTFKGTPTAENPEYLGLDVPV
Description: as §1, §2, §3, §4, §5

[1] = target: T3, erbB2 in a MCF7 derived cell line (Clone 24 cells) (Homo sapiens, UniProt P04626); assay: Clone 24 phospho-erbB2 cell assay, Test (d); type: cell-based; conditions: phosphorylation of erbB2 in a MCF7 derived cell line; read-out: IC50 (μM) Test (e): Inhibition of erbB2 tyrosine kinase protein phosphorylation
T3 construct: a cell line that overexpresses full length wild type erbB2 protein; expressed in transfected cells; host or cells: MCF7 (breast carcinoma) cells stably transfected, 'Clone 24'
T3 sequence (P04626 23-1255): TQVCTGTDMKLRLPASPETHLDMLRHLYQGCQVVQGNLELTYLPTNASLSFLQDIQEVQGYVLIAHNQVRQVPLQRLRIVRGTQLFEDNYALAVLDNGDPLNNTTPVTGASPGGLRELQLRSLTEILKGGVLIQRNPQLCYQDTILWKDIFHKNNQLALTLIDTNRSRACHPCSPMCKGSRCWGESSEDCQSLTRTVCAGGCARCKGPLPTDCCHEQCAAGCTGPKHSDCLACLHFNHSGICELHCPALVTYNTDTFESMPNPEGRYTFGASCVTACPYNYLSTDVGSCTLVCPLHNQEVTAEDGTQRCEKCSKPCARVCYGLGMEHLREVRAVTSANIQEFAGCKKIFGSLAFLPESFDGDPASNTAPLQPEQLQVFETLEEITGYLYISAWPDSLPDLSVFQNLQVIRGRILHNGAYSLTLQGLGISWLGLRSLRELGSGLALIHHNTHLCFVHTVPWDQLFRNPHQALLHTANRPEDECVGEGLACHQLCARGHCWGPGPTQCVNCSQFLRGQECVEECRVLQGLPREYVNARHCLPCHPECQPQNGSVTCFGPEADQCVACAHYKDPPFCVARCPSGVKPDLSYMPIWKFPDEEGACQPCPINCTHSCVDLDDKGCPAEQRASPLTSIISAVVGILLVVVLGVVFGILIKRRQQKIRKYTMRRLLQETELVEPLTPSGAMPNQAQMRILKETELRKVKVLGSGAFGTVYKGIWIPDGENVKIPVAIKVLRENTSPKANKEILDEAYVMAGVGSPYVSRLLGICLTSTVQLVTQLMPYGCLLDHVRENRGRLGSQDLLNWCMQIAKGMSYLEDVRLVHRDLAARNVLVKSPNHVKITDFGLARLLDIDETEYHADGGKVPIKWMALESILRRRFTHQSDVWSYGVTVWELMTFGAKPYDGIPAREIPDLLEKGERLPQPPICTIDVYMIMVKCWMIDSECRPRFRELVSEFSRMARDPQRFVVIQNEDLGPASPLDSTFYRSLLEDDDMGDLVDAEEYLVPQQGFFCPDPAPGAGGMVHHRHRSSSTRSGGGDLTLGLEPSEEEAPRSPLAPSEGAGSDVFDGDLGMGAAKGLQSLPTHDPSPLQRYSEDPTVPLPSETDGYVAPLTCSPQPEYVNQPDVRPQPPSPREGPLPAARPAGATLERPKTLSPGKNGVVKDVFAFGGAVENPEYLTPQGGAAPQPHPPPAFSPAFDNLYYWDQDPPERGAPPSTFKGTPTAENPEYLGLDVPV
Description: This immunofluorescence end point assay measures the ability of a test compound to inhibit the phosphorylation of erbB2 in a MCF7 (breast carcinoma) derived cell line which was generated by transfecting MCF7 cells with the full length erbB2 gene using standard methods to give a cell line that overexpresses full length wild type erbB2 protein (hereinafter ‘Clone 24’ cells).
Clone 24 cells were cultured in Growth Medium (phenol red free Dulbecco's modified Eagle's medium (DMEM) containing 10% foetal bovine serum, 2 mM glutamine and 1.2 mg/ml G418) in a 7.5% CO2 air incubator at 37° C. Cells were harvested from T75 stock flasks by washing once in PBS (phosphate buffered saline, pH7.4, Gibco No. 10010-015) and harvested using 2 mls of Trypsin (1.25 mg/ml)/ethylaminediaminetetraacetic acid (EDTA) (0.8 mg/ml) solution. The cells were resuspended in Growth Medium. Cell density was measured using a haemocytometer and viability was calculated using Trypan Blue solution before being further diluted in Growth Medium and seeded at a density of 1×10^4 cells per well (in 100 ul) into clear bottomed 96 well plates (Packard, No. 6005182).
3 days later, Growth Medium was removed from the wells and replaced with 100 ul Assay Medium (phenol red free DMEM, 2 mM glutamine, 1.2 mg/ml G418) either with or without erbB inhibitor compound. Plates were returned to the incubator for 4 hours and then 20 μl of 20% formaldehyde solution in PBS was added to each well and the plate was left at room temperature for 30 minutes. This fixative solution was removed with a multichannel pipette, 100 μl of PBS was added to each well and then removed with a multichannel pipette and then 50 μl PBS was added to each well. Plates were then sealed and stored for up to 2 weeks at 4° C.
Immunostaining was performed at room temperature. Cells were washed once with 200 μl PBS/Tween 20 (made by adding 1 sachet of PBS/Tween dry powder (Sigma, No. P3563) to 1 L of double distilled H2O) using a plate washer, then 100 μl of 0.5% Triton X-100/PBS was added to each well to permeabalise the cells. After 10 minutes, the plates were washed with 200 μl PBS/Tween 20 and then 100 μl Blocking Solution (5% Marvel dried simmed milk (Nestle) in PBS) was added per well and plates were incubated for 15 minutes. […] Plates were analysed within six hours of completing the immunostaining.
The Fluorescence signal is each well was measured using an Acumen Explorer Instrument (Acumen Bioscience Ltd.), a plate reader that can be used to rapidly quantitate features of images generated by laser-scanning. […] Fluorescence dose response data obtained with each compound was exported into a suitable software package (such as Origin) to perform curve fitting analysis. […]

Row | IC50 (EGFR tyrosine kinase) | IC50 (erbB2 tyrosine kinase) | IC50 [1] | Structure (SMILES)
1 | 0.072 µM | 0.002 µM | 0.001 µM | C[C@@H](Oc1cccc2ncnc(Nc3ccc(OCc4ccccn4)c(Cl)c3)c12)C(=O)N(C)C [Example 21, (2R)-2-[(4-{[3-Chloro-4-(pyridin-2-ylmethoxy)phenyl]amino}quinazolin-5-yl)oxy]-N,N-dimethylpropanamide]
2 | 0.135 µM | 0.002 µM | 0.001 µM | C[C@H](Oc1cccc2ncnc(Nc3ccc(OCc4ccccn4)c(Cl)c3)c12)C(=O)N1CCC[C@H]1CO [Example 34, ((2S)-1-{(2S)-2-[(4-{[3-Chloro-4-(pyridin-2-ylmethoxy)phenyl]amino}quinazolin-5-yl)oxy]propanoyl}pyrrolidin-2-yl)methanol]
3 | 24.8 µM | 0.012 µM | 0.002 µM | CC(C)(Oc1cccc2ncnc(Nc3ccc(OCc4ccccn4)c(Cl)c3)c12)C(N)=O [Example 42, 2-[(4-{[3-Chloro-4-(pyridin-2-ylmethoxy)phenyl]amino}quinazolin-5-yl)oxy]-2-methylpropanamide]
4 | 1.47 µM | 0.002 µM | 0.019 µM | Cc1ccc(Oc2ccc(Nc3ncnc4cccc(OCC(=O)NCCO)c34)cc2C)cn1 [Example 52, N-(2-Hydroxyethyl)-2-{[4-({3-methyl-4-[(6-methylpyridin-3-yl)oxy]phenyl}amino)quinazolin-5-yl]oxy}acetamide]
